From US20230077362A1 (CORTEVA AGRISCIENCE LLC, priority 2019, published 2023) come the findings set out here.

Assay [1] deals with Beet Armyworm (Spodoptera exigua) ("BAW"), second instar larvae. Description: Bioassay on beet armyworm (BAW), 128-well diet tray assay. The settings on record: Spodoptera exigua, read-out: BAW (Biological Results, rating). The class given is in vivo. Summed up: (§1)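 Covered trays were held at 25° C. under a 14:10 light-dark cycle for five to seven days. Percent mortality was then scored in each well, and activity across eight wells was averaged.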

Assay [2] deals with Cabbage Looper (Trichoplusia ni) ("CL"), second instar larvae. The experiment in a line: Bioassay on cabbage looper (CL), 128-well diet tray assay. The class given is in vivo. The following applies: Trichoplusia ni, read-out: CL (Biological Results, rating). In outline: as §1

With `Cc1ccc(C(C)C)c(N2C(=O)CS/C2=N\C(=O)Nc2ccc(-c3ncn(-c4ccc(C(F)(F)F)cn4)n3)cc2F)c1` [Compound J279, (Z)-1-(2-Fluoro-4-(1-(5-(trifluoromethyl)pyridin-2-yl)-1H-1,2,4-triazol-3-yl)phenyl)-3-(3-(2-isopropyl-5-methylphenyl)-4-oxothiazolidin-2-ylidene)urea], the pest or weed control at 50 µg/cm2 in assay [1] and in assay [2] was 50 to 100% in each case.
For the compound `COC(C)c1ccc(C)cc1N1C(=O)CS/C1=N\C(=O)Nc1ccc(-c2ncn(-c3ccc(C(F)(F)F)cn3)n2)cc1F` (stereo not drawn) [Compound J280, (Z)-1-(2-Fluoro-4-(1-(5-(trifluoromethyl)pyridin-2-yl)-1H-1,2,4-triazol-3-yl)phenyl)-3-(3-(2-(1-methoxyethyl)-5-methylphenyl)-4-oxothiazolidin-2-ylidene)urea], the pest or weed control at 50 µg/cm2 in assay [1] and in assay [2] was 50 to 100% throughout.
As for `Cc1ccc(COCC(F)(F)F)c(N2C(=O)CS/C2=N\C(=O)Nc2ccc(-c3ncn(-c4ccc(C(F)(F)F)cn4)n3)cc2F)c1` [Compound J281, (Z)-1-(2-Fluoro-4-(1-(5-(trifluoromethyl)pyridin-2-yl)-1H-1,2,4-triazol-3-yl)phenyl)-3-(3-(5-methyl-2-((2,2,2-trifluoroethoxy)methyl)phenyl)-4-oxothiazolidin-2-ylidene)urea], the pest or weed control at 50 µg/cm2 in assay [1] and in assay [2] was 50 to 100% each time.
Regarding `CCCc1ccc(N(C)C)cc1N1C(=O)CS/C1=N\C(=O)Nc1ccc(-c2ncn(-c3ccc(C(F)(F)F)cn3)n2)cc1F` [Compound J282, (Z)-1-(3-(5-(Dimethylamino)-2-propylphenyl)-4-oxothiazolidin-2-ylidene)-3-(2-fluoro-4-(1-(5-(trifluoromethyl)pyridin-2-yl)-1H-1,2,4-triazol-3-yl)phenyl)urea], the pest or weed control at 50 µg/cm2 in assay [1] and in assay [2] was 50 to 100% each time.
For `COc1ccc(C(C)C)c(N2C(=O)CS/C2=N\C(=O)Nc2ccc(-c3ncn(-c4ccc(C(F)(F)F)cn4)n3)cc2F)c1` [Compound J283, (Z)-1-(2-fluoro-4-(1-(5-(trifluoromethyl)pyridin-2-yl)-1H-1,2,4-triazol-3-yl)phenyl)-3-(3-(2-isopropyl-5-methoxyphenyl)-4-oxothiazolidin-2-ylidene)urea], the pest or weed control at 50 µg/cm2 in assay [1] and in assay [2] was 50 to 100% throughout.
As for `Cc1ccc(C(C)C)c(N2C(=O)CS/C2=N\C(=O)Nc2ccc(-c3ncn(-c4ccc(C(F)(F)F)cn4)n3)cc2C)c1` [Compound J284, (Z)-1-(3-(2-Isopropyl-5-methylphenyl)-4-oxothiazolidin-2-ylidene)-3-(2-methyl-4-(1-(5-(trifluoromethyl)pyridin-2-yl)-1H-1,2,4-triazol-3-yl)phenyl)urea], the pest or weed control at 50 µg/cm2 in assay [1] and in assay [2] was 50 to 100% in each case.
For `Cc1cc(-c2ncn(-c3ccc(C(F)(F)F)cn3)n2)ccc1NC(=O)/N=C1\SCC(=O)N1c1cc(N(C)C)ccc1C(C)C` [Compound J285, (Z)-1-(3-(5-(Dimethylamino)-2-isopropylphenyl)-4-oxothiazolidin-2-ylidene)-3-(2-methyl-4-(1-(5-(trifluoromethyl)pyridin-2-yl)-1H-1,2,4-triazol-3-yl)phenyl)urea], the pest or weed control at 50 µg/cm2 in assay [1] and in assay [2] was 50 to 100% in each case.
Turning to `COC(C)c1ccc(C)cc1N1C(=O)CS/C1=N\C(=O)Nc1ccc(-c2ncn(-c3ccc(C(F)(F)F)cn3)n2)cc1C` (stereo not drawn) [Compound J286, (Z)-1-(3-(2-(1-Methoxyethyl)-5-methylphenyl)-4-oxothiazolidin-2-ylidene)-3-(2-methyl-4-(1-(5-(trifluoromethyl)pyridin-2-yl)-1H-1,2,4-triazol-3-yl)phenyl)urea], the pest or weed control at 50 µg/cm2 in assay [1] and in assay [2] was 50 to 100% throughout.
In the case of `CC(C)c1ccc(N(C)C)cc1N1C(=O)CS/C1=N\C(=O)Nc1ccc(-c2ncn(-c3ccc(C#N)cc3)n2)cc1F` [Compound J290, (Z)-1-(4-(1-(4-Cyanophenyl)-1H-1,2,4-triazol-3-yl)-2-fluorophenyl)-3-(3-(5-(dimethylamino)-2-isopropylphenyl)-4-oxothiazolidin-2-ylidene)urea], the pest or weed control at 50 µg/cm2 in assay [1] and in assay [2] was 50 to 100% each time.
In the case of `COc1ccc(C(C)C)c(N2C(=O)CS/C2=N\C(=O)Nc2ccc(-c3ncn(-c4ccc(C(F)(F)F)cn4)n3)cc2C)c1` [Compound J292, (Z)-1-(3-(2-Isopropyl-5-methoxyphenyl)-4-oxothiazolidin-2-ylidene)-3-(2-methyl-4-(1-(5-(trifluoromethyl)pyridin-2-yl)-1H-1,2,4-triazol-3-yl)phenyl)urea], the pest or weed control at 50 µg/cm2 in assay [1] and in assay [2] was 50 to 100% throughout.
Consider `CCCc1ccc(C)cc1N1C(=O)CS/C1=N\C(=O)Nc1ccc(-c2ncn(-c3ccc(C(F)(F)F)cn3)n2)cc1C` [Compound J293, (Z)-1-(3-(5-Methyl-2-propylphenyl)-4-oxothiazolidin-2-ylidene)-3-(2-methyl-4-(1-(5-(trifluoromethyl)pyridin-2-yl)-1H-1,2,4-triazol-3-yl)phenyl)urea], for which the pest or weed control at 50 µg/cm2 in assay [1] and in assay [2] was 50 to 100% throughout.
As to `CCCc1ccc(N(C)C)cc1N1C(=O)CS/C1=N\C(=O)Nc1ccc(-c2ncn(-c3ccc(C(F)(F)F)cn3)n2)cc1C` [Compound J294, (Z)-1-(3-(5-(Dimethylamino)-2-propylphenyl)-4-oxothiazolidin-2-ylidene)-3-(2-methyl-4-(1-(5-(trifluoromethyl)pyridin-2-yl)-1H-1,2,4-triazol-3-yl)phenyl)urea], the pest or weed control at 50 µg/cm2 in assay [1] and in assay [2] was 50 to 100% in each case.
`Cc1ccc(C(C)C)c(N2C(=O)CS/C2=N\C(=O)Nc2ccc(-c3ncn(-c4ccc(C(F)(F)F)cn4)n3)cc2Cl)c1` [Compound J295, (Z)-1-(2-Chloro-4-(1-(5-(trifluoromethyl)pyridin-2-yl)-1H-1,2,4-triazol-3-yl)phenyl)-3-(3-(2-isopropyl-5-methylphenyl)-4-oxothiazolidin-2-ylidene)urea]: the pest or weed control at 50 µg/cm2 in assay [1] and in assay [2] was 50 to 100% throughout.
Regarding `CC(C)c1ccc(N(C)C)cc1N1C(=O)CS/C1=N\C(=O)Nc1ccc(-c2ncn(-c3ccc(C(F)(F)F)cn3)n2)cc1Cl` [Compound J296, (Z)-1-(2-Chloro-4-(1-(5-(trifluoromethyl)pyridin-2-yl)-1H-1,2,4-triazol-3-yl)phenyl)-3-(3-(5-(dimethylamino)-2-isopropylphenyl)-4-oxothiazolidin-2-ylidene)urea], the pest or weed control at 50 µg/cm2 in assay [1] and in assay [2] was 50 to 100% throughout.
Take `Cc1ccc(COCC(F)(F)F)c(N2C(=O)CS/C2=N\C(=O)Nc2ccc(-c3ncn(-c4ccc(C(F)(F)F)cn4)n3)cc2C)c1` [Compound J297, (Z)-1-(3-(5-Methyl-2-((2,2,2-trifluoroethoxy)methyl)phenyl)-4-oxothiazolidin-2-ylidene)-3-(2-methyl-4-(1-(5-(trifluoromethyl)pyridin-2-yl)-1H-1,2,4-triazol-3-yl)phenyl)urea]: the pest or weed control at 50 µg/cm2 in assay [1] and in assay [2] was 50 to 100% each time.
